Measured values from patent US20250382332A1, “NOVEL ALPHA-FACTOR BASED PEPTIDES WITH ANTIFUNGAL ACTIVITY” (INVAIO SCIENCES, INC., priority 2024, published 2025).
Peptide text beside a SMILES is read from it.

System: Botrytis cinerea (B05.10)
Assay: Resazurin antifungal assay of 180 alpha-factor peptide variants towards Botrytis (Example 2)
Format: cell-based
Parameters: key to active against Botrytis at 15 μM / active against Botrytis at 10 μM: Peptides that showed greater than 90% inhibition were considered active against Botrytis
Settings: for Inhibition at 10 μM: peptide 10 μM; for Inhibition at 20 μM: peptide 20 μM; for Inhibition at 50 μM: peptide 50 μM; for Inhibition at 100 μM: peptide 100 μM
How it was run: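 Resazurin viability read-out (570/620 nm fluorescence) after a 24 h, 20° C incubation of B05.10 conidia, 5000 per well, with peptide at final 10-100 μM. Growth inhibition (%) was derived by subtracting conidia-only fluorescence; four replicates per treatment.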

[1] = % inhibition of fungal growth, Botrytis conidia, resazurin

Structure (SMILES)	Inhibition at 10 μM [1]	Inhibition at 15 μM (% inhibition of fungal growth, Botrytis conidia, peptide 15 μM, resazurin)	Inhibition at 20 μM [1]	Inhibition at 50 μM [1]	Inhibition at 100 μM [1]	active against Botrytis at 15 μM (peptide 15 μM)
CSCC[C@H](NC(=O)[C@@H]1CCCN1C(=O)[C@H](CCC(N)=O)NC(=O)CNC(=O)[C@@H]1CCCN1C(=O)[C@H](CCCCN)NC(=O)[C@H](Cc1ccccc1)NC(=O)[C@H](CCCCN)NC(=O)[C@H](CC(C)C)NC(=O)[C@H](Cc1c[nH]c2ccccc12)NC(=O)[C@H](Cc1c[nH]cn1)NC(=O)[C@@H](N)CCCCN)C(=O)N[C@@H](Cc1ccc(O)cc1)C(=O)O [compound 13] (H-KHWLKFKPGQPMY-OH; N-terminus and C-terminus assumed)	<90%	100%	100%	100%	100%	active
CC[C@H](C)[C@H](NC(=O)[C@@H](NC(=O)[C@H](Cc1c[nH]cn1)NC(=O)[C@@H]1CCCN1)[C@@H](C)O)C(=O)N[C@@H](CCC(N)=O)C(=O)N[C@@H](CC(C)C)C(=O)N[C@@H](Cc1c[nH]c2ccccc12)C(=O)N[C@@H](CCCCN)C(=O)NCC(=O)N[C@@H](CCC(N)=O)C(=O)N1CCC[C@H]1C(=O)N[C@@H](CCSC)C(=O)N[C@@H](Cc1ccc(O)cc1)C(=O)O [compound 169] (H-PHTIQLWKGQPMY-OH; N-terminus and C-terminus assumed)	–	–	–	<90%	<90%	–
CSCC[C@H](NC(=O)[C@@H]1CCCN1C(=O)[C@H](CCC(N)=O)NC(=O)CNC(=O)[C@@H]1CCCN1C(=O)[C@H](Cc1c[nH]c2ccccc12)NC(=O)[C@H](Cc1ccccc1)NC(=O)[C@H](CCC(N)=O)NC(=O)CNC(=O)[C@@H](NC(=O)[C@H](CCCNC(=N)N)NC(=O)[C@@H](N)Cc1c[nH]c2ccccc12)[C@@H](C)O)C(=O)N[C@@H](Cc1ccc(O)cc1)C(=O)O [compound 146] (H-WRTGQFWPGQPMY-OH; N-terminus and C-terminus assumed)	–	–	–	<90%	<90%	–
CSCC[C@H](NC(=O)[C@H](CO)NC(=O)[C@H](CO)NC(=O)CNC(=O)[C@@H]1CCCN1C(=O)[C@H](CCCCN)NC(=O)[C@H](CC(C)C)NC(=O)[C@H](CO)NC(=O)[C@H](CC(C)C)NC(=O)[C@H](Cc1c[nH]c2ccccc12)NC(=O)[C@H](CCC(=O)O)NC(=O)[C@@H]1CCCN1)C(=O)N[C@@H](Cc1ccc(O)cc1)C(=O)O [compound 122] (H-PEWLSLKPGSSMY-OH; N-terminus and C-terminus assumed)	–	–	–	<90%	<90%	–
CSCC[C@H](NC(=O)CNC(=O)[C@H](CCC(N)=O)NC(=O)CNC(=O)[C@@H]1CCCN1C(=O)[C@H](Cc1ccccc1)NC(=O)[C@H](Cc1ccccc1)NC(=O)[C@H](CO)NC(=O)[C@H](CC(C)C)NC(=O)[C@H](Cc1c[nH]c2ccccc12)NC(=O)[C@H](Cc1c[nH]cn1)NC(=O)[C@@H]1CCCN1)C(=O)N[C@@H](Cc1ccc(O)cc1)C(=O)O [compound 34] (H-PHWLSFFPGQGMY-OH; N-terminus and C-terminus assumed)	–	–	–	<90%	<90%	–
CSCC[C@H](NC(=O)[C@@H]1CCCN1C(=O)[C@H](CCC(N)=O)NC(=O)CNC(=O)[C@@H]1CCCN1C(=O)[C@H](CCCCN)NC(=O)[C@H](CC(C)C)NC(=O)[C@H](CO)NC(=O)[C@H](CC(C)C)NC(=O)[C@@H](NC(=O)CNC(=O)[C@@H](N)CCCCN)[C@@H](C)O)C(=O)N[C@@H](Cc1ccc(O)cc1)C(=O)O [compound 164] (H-KGTLSLKPGQPMY-OH; N-terminus and C-terminus assumed)	–	–	–	<90%	<90%	–
CSCC[C@H](NC(=O)[C@@H]1CCCN1C(=O)[C@H](CCC(N)=O)NC(=O)CNC(=O)[C@@H]1CCCN1C(=O)[C@H](CCSC)NC(=O)[C@H](CC(C)C)NC(=O)[C@H](CCCCN)NC(=O)[C@H](CC(C)C)NC(=O)[C@@H](NC(=O)[C@H](CCCNC(=N)N)NC(=O)[C@@H](N)Cc1c[nH]c2ccccc12)C(C)C)C(=O)N[C@@H](Cc1ccc(O)cc1)C(=O)O [compound 149] (H-WRVLKLMPGQPMY-OH; N-terminus and C-terminus assumed)	–	–	–	<90%	<90%	–
CC[C@H](C)[C@H](NC(=O)[C@H](CC(C)C)NC(=O)[C@H](Cc1c[nH]cn1)NC(=O)[C@@H]1CCCN1)C(=O)N[C@@H](CCC(N)=O)C(=O)N[C@@H](CC(C)C)C(=O)NCC(=O)N[C@@H](CC(C)C)C(=O)NCC(=O)N[C@@H](CCC(N)=O)C(=O)N1CCC[C@H]1C(=O)N[C@@H](CCSC)C(=O)N[C@@H](Cc1ccc(O)cc1)C(=O)O [compound 131] (H-PHLIQLGLGQPMY-OH; N-terminus and C-terminus assumed)	–	–	–	<90%	<90%	–
CSCC[C@H](NC(=O)[C@@H]1CCCN1C(=O)[C@H](CCC(=O)O)NC(=O)CNC(=O)[C@@H](NC(=O)CNC(=O)[C@H](CC(C)C)NC(=O)[C@H](CCCCN)NC(=O)[C@H](CC(C)C)NC(=O)[C@H](Cc1c[nH]c2ccccc12)NC(=O)[C@H](Cc1c[nH]cn1)NC(=O)[C@@H](N)Cc1c[nH]c2ccccc12)[C@@H](C)O)C(=O)N[C@@H](Cc1ccc(O)cc1)C(=O)O [compound 119] (H-WHWLKLGTGEPMY-OH; N-terminus and C-terminus assumed)	–	–	–	<90%	98.65%	–
CC[C@H](C)[C@H](NC(=O)[C@H](Cc1c[nH]c2ccccc12)NC(=O)[C@H](Cc1c[nH]cn1)NC(=O)[C@@H]1CCCN1)C(=O)N[C@@H](CCC(N)=O)C(=O)N[C@@H](CC(C)C)C(=O)N[C@@H](Cc1ccccc1)C(=O)N[C@@H](CC(N)=O)C(=O)NCC(=O)N[C@@H](CCC(N)=O)C(=O)N1CCC[C@H]1C(=O)N[C@@H](CCSC)C(=O)N[C@@H](Cc1ccc(O)cc1)C(=O)O [compound 37] (H-PHWIQLFNGQPMY-OH; N-terminus and C-terminus assumed)	–	–	–	<90%	<90%	–
CSCC[C@H](NC(=O)[C@H](CCC(N)=O)NC(=O)[C@@H](N)Cc1c[nH]c2ccccc12)C(=O)N[C@@H](CC(C)C)C(=O)N[C@@H](CCCCN)C(=O)N[C@@H](CC(C)C)C(=O)N[C@@H](CCCCN)C(=O)N[C@@H](Cc1ccc(O)cc1)C(=O)NCC(=O)N[C@@H](CCC(N)=O)C(=O)N1CCC[C@H]1C(=O)N[C@@H](CCSC)C(=O)N[C@@H](Cc1ccc(O)cc1)C(=O)O [compound 138] (H-WQMLKLKYGQPMY-OH; N-terminus and C-terminus assumed)	–	–	–	<90%	<90%	–
CSCC[C@H](NC(=O)[C@@H]1CCCN1C(=O)[C@H](CO)NC(=O)CNC(=O)[C@@H]1CCCN1C(=O)CNC(=O)[C@H](Cc1ccccc1)NC(=O)[C@H](CCC(N)=O)NC(=O)[C@@H](NC(=O)[C@H](Cc1c[nH]c2ccccc12)NC(=O)[C@H](Cc1c[nH]cn1)NC(=O)[C@@H](N)Cc1c[nH]c2ccccc12)C(C)C)C(=O)N[C@@H](Cc1ccc(O)cc1)C(=O)O [compound 111] (H-WHWVQFGPGSPMY-OH; N-terminus and C-terminus assumed)	<90%	–	<90%	<90%	96.65%	–
CSCC[C@H](NC(=O)[C@@H]1CCCN1C(=O)[C@H](CCC(N)=O)NC(=O)CNC(=O)[C@H](CC(C)C)NC(=O)[C@H](CCCCN)NC(=O)[C@H](Cc1ccccc1)NC(=O)[C@H](CCC(N)=O)NC(=O)CNC(=O)[C@H](Cc1c[nH]c2ccccc12)NC(=O)[C@H](Cc1c[nH]cn1)NC(=O)[C@@H]1CCCN1)C(=O)N[C@@H](Cc1ccc(O)cc1)C(=O)O [compound 43] (H-PHWGQFKLGQPMY-OH; N-terminus and C-terminus assumed)	–	–	–	<90%	<90%	–
CSCC[C@H](NC(=O)[C@@H]1CCCN1C(=O)[C@H](CCC(N)=O)NC(=O)CNC(=O)[C@@H]1CCCN1C(=O)[C@H](CCCCN)NC(=O)[C@H](Cc1ccccc1)NC(=O)[C@H](CC(N)=O)NC(=O)[C@H](CC(C)C)NC(=O)[C@H](Cc1ccc(O)cc1)NC(=O)[C@H](Cc1c[nH]cn1)NC(=O)[C@@H](N)CCCCN)C(=O)N[C@@H](Cc1ccc(O)cc1)C(=O)O [compound 24] (H-KHYLNFKPGQPMY-OH; N-terminus and C-terminus assumed)	<90%	–	<90%	96.95%	100%	–
CSCC[C@H](NC(=O)[C@@H]1CCCN1C(=O)[C@H](CO)NC(=O)CNC(=O)[C@H](CC(N)=O)NC(=O)[C@H](CCCCN)NC(=O)[C@H](CC(C)C)NC(=O)[C@H](CCC(N)=O)NC(=O)[C@@H](NC(=O)[C@H](CC(=O)O)NC(=O)[C@H](Cc1c[nH]cn1)NC(=O)[C@@H](N)CCCCN)C(C)C)C(=O)N[C@@H](Cc1ccc(O)cc1)C(=O)O [compound 156] (H-KHDVQLKNGSPMY-OH; N-terminus and C-terminus assumed)	–	–	–	<90%	<90%	–
CC[C@H](C)[C@H](NC(=O)[C@H](C)NC(=O)[C@H](CC(C)C)NC(=O)[C@H](Cc1c[nH]c2ccccc12)NC(=O)[C@H](Cc1c[nH]cn1)NC(=O)[C@@H](N)Cc1c[nH]c2ccccc12)C(=O)N[C@@H](Cc1ccccc1)C(=O)N[C@@H](CCCNC(=N)N)C(=O)NCC(=O)N[C@@H](CCC(N)=O)C(=O)N1CCC[C@H]1C(=O)N[C@@H](CCSC)C(=O)N[C@@H](Cc1ccc(O)cc1)C(=O)O [compound 57] (H-WHWLAIFRGQPMY-OH; N-terminus and C-terminus assumed)	3.45%	–	<90%	100%	100%	–
